For test [1], the target named is SHP-2 full length protein (Homo sapiens (Human), UniProt Q06124). In words: SHP-2 biochemical DiFMUP pseudosubstrate-fluorogenic assay. The following applies: 0.2 nM SHP-2, 1 μM IRS-1 activator peptide, 50 μM DiFMUP; read-out: SHP2 IC50. In outline:
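In-house recombinant full-length SHP-2 preincubated 90 min at room temperature with compounds (1:3 series, 10,000–0.005 nM), then DiFMUP substrate added at 50 μM final for 30 min more. Fluorescence normalised to DMSO wells (100%) and IC50 derived by curve fitting.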

The next test concerns NCI-H358 cells. In words: NCI-H358 3D tumor spheroid growth inhibition. The format is cell-based. The following applies: Homo sapiens, NCI-H358, 168 h, 3D spheroids, 7 days, 3D CellTiter Glo; cellular IC50 designated EC50; read-out: H358 EC50. In a few lines:
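Cells seeded at 1000/well in ultra-low-attachment plates at 37 °C, 5% CO2 to form spheroids, then incubated a further 7 days with compounds. Viability by 3D CellTiter Glo luminescence; % inhibition versus DMSO wells, with normalized cellular IC50 reported as EC50.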

Sequence of SHP-2 full length protein (Q06124 whole entry): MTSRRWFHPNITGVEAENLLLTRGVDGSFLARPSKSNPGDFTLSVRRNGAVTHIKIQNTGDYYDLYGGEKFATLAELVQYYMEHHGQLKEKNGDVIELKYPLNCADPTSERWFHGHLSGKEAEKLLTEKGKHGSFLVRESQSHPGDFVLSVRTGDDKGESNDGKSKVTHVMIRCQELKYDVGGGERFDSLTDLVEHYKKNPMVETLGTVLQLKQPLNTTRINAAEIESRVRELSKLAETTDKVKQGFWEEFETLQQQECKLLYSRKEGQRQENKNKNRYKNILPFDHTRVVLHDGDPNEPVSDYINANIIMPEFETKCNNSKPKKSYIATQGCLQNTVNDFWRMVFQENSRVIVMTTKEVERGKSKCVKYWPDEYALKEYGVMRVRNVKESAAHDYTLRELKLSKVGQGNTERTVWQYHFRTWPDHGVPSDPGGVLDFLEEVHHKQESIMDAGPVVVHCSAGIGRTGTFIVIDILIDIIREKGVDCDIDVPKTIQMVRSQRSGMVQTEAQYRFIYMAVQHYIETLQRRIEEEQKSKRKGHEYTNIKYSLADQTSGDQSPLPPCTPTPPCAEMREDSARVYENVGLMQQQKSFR

The term IC50 denotes the concentration that inhibits the measured activity by half. What is called EC50 is the concentration that produces a half-maximal response. Regarding `C[C@@H]1OCC2(CCN(c3ncc(Sc4ccnc5c4CCC5)c4nccn34)CC2)[C@@H]1N` [Example 97, (3S,4S)-8-(8-((6,7-dihydro-5H-cyclopenta[b]pyridin-4-yl)thio)imidazo[1,2-c]pyrimidin-5-yl)-3-methyl-2-oxa-8-azaspiro[4.5]decan-4-amine], the IC50 in test [1] is 11 nM. Besides, in the test on NCI-H358 cells, the EC50 is 110 nM.
Taken in the same sequence, the figures for `C[C@@H]1OCC2(CCN(c3ncc(Sc4cccn5nccc45)c4nccn34)CC2)[C@@H]1N` [Example 98, (3S,4S)-3-methyl-8-(8-(pyrazolo[1,5-a]pyridin-4-ylthio)imidazo[1,2-c]pyrimidin-5-yl)-2-oxa-8-azaspiro[4.5]decan-4-amine] were 16 nM and 250 nM.
The corresponding values for `C[C@@H]1OCC2(CCN(c3ncc(Sc4cccc5ccsc45)c4nccn34)CC2)[C@@H]1N` [Example 99, (3S,4S)-8-(8-(benzo[b]thiophen-7-ylthio)imidazo[1,2-c]pyrimidin-5-yl)-3-methyl-2-oxa-8-azaspiro[4.5]decan-4-amine] are 4.1 nM and 96 nM.
For `C[C@@H]1OCC2(CCN(c3ncc(Sc4cccc5nc(N)sc45)c4nccn34)CC2)[C@@H]1N` [Example 100, (3S,4S)-8-(8-((2-aminobenzo[d]thiazol-7-yl)thio)imidazo[1,2-c]pyrimidin-5-yl)-3-methyl-2-oxa-8-azaspiro[4.5]decan-4-amine], the IC50 in test [1] amounted to 6.7 nM. In addition, the EC50 in the test with NCI-H358 cells came to 140 nM.
Consider `CSc1ccccc1Sc1cnc(N2CCC3(CC2)CO[C@@H](C)[C@H]3N)n2ccnc12` [Example 101, (3S,4S)-3-methyl-8-(8-((2-(methylthio)phenyl)thio)imidazo[1,2-c]pyrimidin-5-yl)-2-oxa-8-azaspiro[4.5]decan-4-amine], for which the IC50 in test [1] came to 5.7 nM. Further, in the test with NCI-H358 cells, the EC50 stood at 84 nM.
The corresponding values for `C[C@@H]1OCC2(CCN(c3ncc(Sc4ccnc5sccc45)c4nccn34)CC2)[C@@H]1N` [Example 102, (3S,4S)-3-methyl-8-(8-(thieno[2,3-b]pyridin-4-ylthio)imidazo[1,2-c]pyrimidin-5-yl)-2-oxa-8-azaspiro[4.5]decan-4-amine] are 4 nM and 66 nM.
The corresponding values for `C[C@@H]1OCC2(CCN(c3ncc(Sc4ccnc5c(Br)cccc45)c4nccn34)CC2)[C@@H]1N` [Example 103] are 4.6 nM and 150 nM.
The corresponding values for `C[C@@H]1OCC2(CCN(c3ncc(Sc4ccnc5c(N)cccc45)c4nccn34)CC2)[C@@H]1N` [Example 104, (3S,4S)-8-(8-((8-aminoquinolin-4-yl)thio)imidazo[1,2-c]pyrimidin-5-yl)-3-methyl-2-oxa-8-azaspiro[4.5]decan-4-amine] are 4.2 nM and 74 nM.
On to `COC(=O)c1cccc2c(Sc3cnc(N4CCC5(CC4)CO[C@@H](C)[C@H]5N)n4ccnc34)ccnc12` [Example 105, methyl 4-((5-((3S,4S)-4-amino-3-methyl-2-oxa-8-azaspiro[4.5]decan-8-yl)imidazo[1,2-c]pyrimidin-8-yl)thio)quinoline-8-carboxylate], for which the IC50 in test [1] was 82 nM. For the same compound, in the test with NCI-H358 cells, the EC50 was 760 nM.
As for `C[C@@H]1OCC2(CCN(c3ncc(Sc4ccnc5ccsc45)c4nccn34)CC2)[C@@H]1N` [Example 106, (3S,4S)-3-methyl-8-(8-(thieno[3,2-b]pyridin-7-ylthio)imidazo[1,2-c]pyrimidin-5-yl)-2-oxa-8-azaspiro[4.5]decan-4-amine], the IC50 in test [1] was determined as 4.2 nM. In addition, the EC50 in the test on NCI-H358 cells came to 39 nM.
The corresponding values for `C[C@@H]1OCC2(CCN(c3ncc(Sc4cccc5cnsc45)c4nccn34)CC2)[C@@H]1N` [Example 107, (3S,4S)-8-(8-(benzo[d]isothiazol-7-ylthio)imidazo[1,2-c]pyrimidin-5-yl)-3-methyl-2-oxa-8-azaspiro[4.5]decan-4-amine] are 3.7 nM and 64 nM.
